Results on 14 compounds are retold here after patent US8871753B2, “Macrocyclic compounds and their use as kinase inhibitors” (Incyte Corporation, priority 2008, dated 2014).

Holding throughout (format): biochemical
One assay deals with TYK2 (Homo sapiens, UniProt P29597). Briefly: TYK2 kinase inhibition (Table A1).
For assay [1], the target named is T1, Recombinant Human Anaplastic Lymphoma Kinase (Homo sapiens, UniProt Q9UM73).
T1 construct: purchased Invitrogen, Carlsbad, Calif
Briefly: ALK HTRF kinase assay. In a few lines: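 Biotinylated peptide substrate, recombinant human ALK; detection via europium-chelate antibody to phosphotyrosine paired with streptavidin-APC. Potency expressed as IC50 from four-parameter curve fitting.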

Assay [2] concerns the target T2, human JAK3 (a.a. 781-1124) (Homo sapiens, UniProt P52333).
T2 construct: JAK3 (a.a. 781-1124); His tag (N); made in house; host or cells: insect cells (baculovirus)
Briefly: In vitro JAK kinase assay (HTRF, phosphorylation of a biotinylated peptide), JAK3. An outline of the steps:
(§1)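 Phosphorylation of a biotinylated peptide by the JAK kinase domain, detected by HTRF with Eu-Py20 and SA-APC. ATP was 90 μM for JAK1, 30 μM for JAK2 and 3 μM for JAK3. Reactions ran 1 h at room temperature and were stopped with EDTA, followed by 40 min antibody binding.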

Assay [3] addresses T3, human JAK2 (a.a. 828-1132) (Homo sapiens, UniProt O60674).
T3 construct: JAK2 (a.a. 828-1132); His tag (N); made in house; host or cells: insect cells (baculovirus)
The experiment in a line: In vitro JAK kinase assay (HTRF, phosphorylation of a biotinylated peptide), JAK2. An outline of the steps: as §1
On the technique in general: In TR-FRET formats the signal depends on donor and acceptor labels being close together.

Assay [4] addresses T4, human JAK1 (a.a. 837-1142) (Homo sapiens, UniProt P23458).
T4 construct: human JAK1 (a.a. 837-1142); His tag (N); made in house; host or cells: insect cells (baculovirus)
Briefly: In vitro JAK kinase assay (HTRF, phosphorylation of a biotinylated peptide), JAK1. Conditions: read-out: JAK1 IC50. An outline of the steps: as §1

The mark [5] stands for this setting: compound at a concentration of 500 nM or 1 mM (not specified), cells shown as percentage.
[6] abbreviates: compound at 500 nM or 1 mM, 90 μM ATP.
Where [7] appears, read: method AA1 (3 μM ATP) or AA2 (1000 μM ATP), not stated per value.
[8] abbreviates: method AA1 (30 μM ATP) or AA2 (1000 μM ATP), not stated per value.
Where [9] appears, read: method AA1 (90 μM ATP) or AA2 (1000 μM ATP), not stated per value.

Counter-ions that a name gives are not always drawn. Like-named read-outs stand apart in the source and are kept apart here. Some results are limits rather than exact numbers.

T1 sequence (Q9UM73 19-1620): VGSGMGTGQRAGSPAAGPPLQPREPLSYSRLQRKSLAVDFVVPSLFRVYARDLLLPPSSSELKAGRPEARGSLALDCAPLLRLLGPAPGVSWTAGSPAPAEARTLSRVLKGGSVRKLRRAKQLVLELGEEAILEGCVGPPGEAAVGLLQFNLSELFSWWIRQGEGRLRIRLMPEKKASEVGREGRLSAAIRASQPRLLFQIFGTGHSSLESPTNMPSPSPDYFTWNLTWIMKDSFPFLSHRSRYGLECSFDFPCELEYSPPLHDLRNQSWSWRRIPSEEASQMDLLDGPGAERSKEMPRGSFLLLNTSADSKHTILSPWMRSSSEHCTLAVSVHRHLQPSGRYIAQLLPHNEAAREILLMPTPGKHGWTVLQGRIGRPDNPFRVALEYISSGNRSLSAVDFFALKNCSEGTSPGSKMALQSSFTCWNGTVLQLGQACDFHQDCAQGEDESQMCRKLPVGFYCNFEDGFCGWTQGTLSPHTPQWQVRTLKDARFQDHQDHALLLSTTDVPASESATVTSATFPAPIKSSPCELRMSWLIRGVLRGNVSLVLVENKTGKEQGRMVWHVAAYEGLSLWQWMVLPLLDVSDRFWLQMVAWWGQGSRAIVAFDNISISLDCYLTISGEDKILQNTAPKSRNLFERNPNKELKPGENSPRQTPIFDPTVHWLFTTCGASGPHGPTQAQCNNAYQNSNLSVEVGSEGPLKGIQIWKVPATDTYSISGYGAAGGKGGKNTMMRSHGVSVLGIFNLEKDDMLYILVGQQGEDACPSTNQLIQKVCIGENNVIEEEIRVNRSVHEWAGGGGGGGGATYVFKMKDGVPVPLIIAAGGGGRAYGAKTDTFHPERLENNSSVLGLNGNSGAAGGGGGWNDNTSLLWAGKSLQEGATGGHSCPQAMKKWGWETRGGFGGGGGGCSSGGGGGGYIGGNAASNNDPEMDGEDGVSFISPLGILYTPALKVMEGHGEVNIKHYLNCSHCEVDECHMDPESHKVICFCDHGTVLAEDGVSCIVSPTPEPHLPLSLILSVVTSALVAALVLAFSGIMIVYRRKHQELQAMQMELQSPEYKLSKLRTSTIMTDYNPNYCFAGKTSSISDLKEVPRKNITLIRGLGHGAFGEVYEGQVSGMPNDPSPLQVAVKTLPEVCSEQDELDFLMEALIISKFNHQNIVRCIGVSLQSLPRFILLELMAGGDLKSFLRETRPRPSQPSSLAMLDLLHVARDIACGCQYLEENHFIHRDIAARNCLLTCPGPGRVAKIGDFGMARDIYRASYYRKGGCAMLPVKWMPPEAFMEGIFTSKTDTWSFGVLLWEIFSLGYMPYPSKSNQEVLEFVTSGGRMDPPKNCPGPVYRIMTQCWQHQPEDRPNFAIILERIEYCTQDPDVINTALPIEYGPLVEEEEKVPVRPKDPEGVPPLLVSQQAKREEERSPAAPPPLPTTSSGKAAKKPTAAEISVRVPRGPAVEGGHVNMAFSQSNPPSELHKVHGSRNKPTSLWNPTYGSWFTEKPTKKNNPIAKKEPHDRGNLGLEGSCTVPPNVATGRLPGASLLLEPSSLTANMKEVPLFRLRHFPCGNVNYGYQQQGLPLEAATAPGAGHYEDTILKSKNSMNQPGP
T3 sequence (O60674 828-1132): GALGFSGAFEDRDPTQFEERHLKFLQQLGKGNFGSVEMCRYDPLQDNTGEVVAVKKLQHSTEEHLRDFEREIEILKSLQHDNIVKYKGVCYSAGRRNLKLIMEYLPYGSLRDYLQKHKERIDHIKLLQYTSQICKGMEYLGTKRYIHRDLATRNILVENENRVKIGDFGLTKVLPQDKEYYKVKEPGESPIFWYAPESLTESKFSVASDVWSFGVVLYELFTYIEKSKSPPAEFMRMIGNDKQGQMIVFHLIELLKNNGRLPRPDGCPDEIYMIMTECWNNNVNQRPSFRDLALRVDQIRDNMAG
T2 sequence (P52333 781-1124): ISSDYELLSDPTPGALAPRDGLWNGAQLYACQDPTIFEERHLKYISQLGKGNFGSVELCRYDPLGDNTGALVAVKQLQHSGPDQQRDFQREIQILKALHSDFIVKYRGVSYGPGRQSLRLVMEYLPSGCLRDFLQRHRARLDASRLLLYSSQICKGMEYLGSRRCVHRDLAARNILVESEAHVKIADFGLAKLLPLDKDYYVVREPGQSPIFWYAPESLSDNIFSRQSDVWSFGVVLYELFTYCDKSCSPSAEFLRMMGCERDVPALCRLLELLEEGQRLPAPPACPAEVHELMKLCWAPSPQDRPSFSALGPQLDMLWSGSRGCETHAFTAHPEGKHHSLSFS
Sequence of TYK2 (P29597 whole entry): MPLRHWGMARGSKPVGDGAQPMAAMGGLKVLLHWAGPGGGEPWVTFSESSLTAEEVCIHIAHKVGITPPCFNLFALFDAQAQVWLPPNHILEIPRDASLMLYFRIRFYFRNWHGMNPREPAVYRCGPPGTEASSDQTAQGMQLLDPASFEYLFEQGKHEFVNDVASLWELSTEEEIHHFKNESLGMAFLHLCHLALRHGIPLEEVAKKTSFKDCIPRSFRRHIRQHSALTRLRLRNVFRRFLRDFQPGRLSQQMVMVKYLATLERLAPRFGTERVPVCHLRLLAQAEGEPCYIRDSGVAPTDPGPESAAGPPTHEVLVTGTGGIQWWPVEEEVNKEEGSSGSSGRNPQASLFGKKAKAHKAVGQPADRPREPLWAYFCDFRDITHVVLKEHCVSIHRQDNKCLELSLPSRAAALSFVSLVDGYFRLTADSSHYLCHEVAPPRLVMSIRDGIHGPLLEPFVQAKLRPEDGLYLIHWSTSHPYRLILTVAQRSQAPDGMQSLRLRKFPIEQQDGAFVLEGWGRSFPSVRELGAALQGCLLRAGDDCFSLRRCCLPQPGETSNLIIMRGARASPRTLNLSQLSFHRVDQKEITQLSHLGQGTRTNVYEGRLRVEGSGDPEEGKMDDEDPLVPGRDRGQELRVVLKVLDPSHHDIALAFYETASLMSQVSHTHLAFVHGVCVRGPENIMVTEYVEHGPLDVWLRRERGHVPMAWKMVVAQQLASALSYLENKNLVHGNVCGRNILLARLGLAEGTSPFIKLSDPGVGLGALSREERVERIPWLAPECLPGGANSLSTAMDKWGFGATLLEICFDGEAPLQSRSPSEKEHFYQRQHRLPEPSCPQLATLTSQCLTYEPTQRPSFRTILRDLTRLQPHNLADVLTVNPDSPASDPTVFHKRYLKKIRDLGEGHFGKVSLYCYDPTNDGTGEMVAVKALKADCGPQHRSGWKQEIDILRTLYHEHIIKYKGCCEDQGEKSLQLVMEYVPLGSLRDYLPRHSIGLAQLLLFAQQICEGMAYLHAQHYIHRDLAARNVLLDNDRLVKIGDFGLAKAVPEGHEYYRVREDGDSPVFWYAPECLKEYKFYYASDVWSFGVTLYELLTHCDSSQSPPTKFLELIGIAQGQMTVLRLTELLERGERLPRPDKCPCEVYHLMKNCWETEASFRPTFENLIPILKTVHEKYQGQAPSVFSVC
T4 sequence (P23458 849-1154): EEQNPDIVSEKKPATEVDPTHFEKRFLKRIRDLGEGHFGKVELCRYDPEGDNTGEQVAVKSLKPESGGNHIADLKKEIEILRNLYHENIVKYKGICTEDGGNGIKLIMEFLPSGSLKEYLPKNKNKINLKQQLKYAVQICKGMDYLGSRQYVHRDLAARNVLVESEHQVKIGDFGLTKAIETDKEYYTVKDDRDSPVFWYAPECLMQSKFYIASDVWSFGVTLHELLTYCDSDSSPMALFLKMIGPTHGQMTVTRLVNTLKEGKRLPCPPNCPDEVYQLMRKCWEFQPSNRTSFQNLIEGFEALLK

Take `O=C(NCCN1CCCC1=O)Nc1ccc2cc1CCc1cccc(c1)Nc1ncc(Cl)c(n1)N2` [Example B257, N-[6-Chloro-2,4,8,22-tetraazatetracyclo[14.3.1.1(3,7).1(9,13)]docosa-1(20),3(22),4,6,9(21),10,12,16,18-nonaen-12-yl]-N′-[2-(2-oxopyrrolidin-1-yl)ethyl]urea trifluoroacetate]: the IC50 against TYK2 (Table B1) came out at 18 nM; in assay [2] (Table B1) it was 64 nM; in assay [3] (Table B1), 9.5 nM; in assay [4] (Table B1), 7.3 nM. For the same compound, the “ALK % of inhibition at a concentration of 500 nM or 1 mM” value (from here on “ALK % of inhibition”) in assay [1] (setting [5]) was determined as 14%.

As for `O=C(Nc1ccc2cc1CCc1cccc(c1)Nc1ncc(Cl)c(n1)N2)c1ccncc1` [Example B39, N-[6-Chloro-2,4,8,22-tetraazatetracyclo[14.3.1.1(3,7).1(9,13)]docosa-1(20), 3(22),4,6,9(21),10,12,16,18-nonaen-12-yl]isonicotinamide bis(trifluoroacetate)], the IC50 at TYK2 (Table B1) stood at 0.66 nM; in assay [1] (Table B1, cells without percent sign), 86 nM; in assay [2] (Table B1), 2.7 nM; in assay [3] (Table B1) it was 0.12 nM; in assay [4] (Table B1) it was 0.2 nM.

On to `CC(=O)N1CC[C@@H](NC(=O)Nc2ccc3cc2CCc2cccc(c2)Nc2ncc(Cl)c(n2)N3)C1` [Example B177, N-[(3R)-1-Acetylpyrrolidin-3-yl]-N′-[6-chloro-2,4,8,22-tetraazatetracyclo[14.3.1.1(3,7).1(9,13)]docosa-1(20),3(22),4,6,9(21),10,12,16,18-nonaen-12-yl]urea trifluoroacetate], for which the IC50 at TYK2 (Table B1) turned out to be 39 nM; in assay [2] (Table B1) it was 46 nM; in assay [3] (Table B1), 5.4 nM; in assay [4] (Table B1), 3.1 nM. Moreover, the “ALK % of inhibition” value in assay [1] (setting [5]) was 20%.

As to `Cc1oncc1C(=O)N1CCC(CC(=O)Nc2ccc3cc2CCc2cncc(c2)Nc2ncc(Cl)c(n2)N3)CC1` [Example A131, N-[6-Chloro-2,4,8,18,22-pentaazatetracyclo[14.3.1.1(3,7).1(9,13)]docosa-1(20),3(22),4,6,9(21),10,12,16,18-nonaen-12-yl]-2-{1-[(5-methylisoxazol-4-yl)carbonyl]piperidin-4-yl}acetamide bis(trifluoroacetate)], the IC50 on TYK2 is 45 nM; in assay [2] (setting [7]) it was 225 nM; in assay [3] (setting [8]), 36 nM; in assay [4] (setting [9]) it was 6.6 nM. In assay [1] (setting [6]), the “ALK % of inhibition” value is on record as 20%.

In the case of `O=C(COc1cc2cc(c1)Nc1nc(ncc1Cl)Nc1cccc(c1)CC2)Nc1ccccc1` [Example A24, 2-{[6-Chloro-2,4,8,22-tetraazatetracyclo[14.3.1.1(3,7).1(9,13)]docosa-1(20),3(22),4,6,9(21),10,12,16,18-nonaen-11-yl]oxy}-N-phenylacetamide trifluoroacetate], the IC50 at TYK2 was 139 nM; in assay [2] (setting [7]), 58 nM; in assay [3] (setting [8]) it was 4.3 nM; in assay [4] (setting [9]), 47 nM. Moreover, in assay [1] (setting [6]), the “ALK % of inhibition” value is reported as 11%.

On to `CC(C)NC(=O)NCCNC(=O)Nc1ccc2cc1CCc1cccc(c1)Nc1ncc(Cl)c(n1)N2` [Example B188, N-[6-Chloro-2,4,8,22-tetraazatetracyclo[14.3.1.1(3,7).1(9,13)]docosa-1(20),3(22),4,6,9(21),10,12,16,18-nonaen-12-yl]-N′-(2-{[(isopropylamino)carbonyl]amino}ethyl)urea trifluoroacetate], for which the IC50 against TYK2 (Table B1) was determined as 13 nM; in assay [2] (Table B1), 52 nM; in assay [3] (Table B1) it was 7.7 nM; in assay [4] (Table B1), 4 nM. Besides, in assay [1] (setting [5]), the “ALK % of inhibition” value is given as 24%.

`Clc1cnc2nc1Nc1cccc(c1)CCCNc1cccc(c1)N2` [Example D77, 6-Chloro-2,4,8,17,24-pentaazatetracyclo[16.3.1.1(3,7).1(9,13)]tetracosa-1(22),3(24),4,6,9(23),10,12,18,20-nonaene bis(trifluoroacetate)]: the IC50 at TYK2 (Table D1) came out at 5.6 nM; in assay [1] (Table D1, 90 μM ATP), 400 nM; in assay [2] (Table D1) it was 11 nM; in assay [3] (Table D1), 3.1 nM; in assay [4] (Table D1), 8.9 nM.

For `CC(C)(C)C(=O)N1CCC(CC(=O)Nc2ccc3cc2CCc2cncc(c2)Nc2ncc(Cl)c(n2)N3)CC1` [Example A112, N-[6-Chloro-2,4,8,18,22-pentaazatetracyclo[14.3.1.1(3,7).1(9,13)]docosa-1(20),3(22),4,6,9(21),10,12,16,18-nonaen-12-yl]-2-[1-(2,2-dimethylpropanoyl)piperidin-4-yl]acetamide bis(trifluoroacetate)], the IC50 against TYK2 was found to be 61 nM; in assay [2] (setting [7]), 239 nM; in assay [3] (setting [8]), 38 nM; in assay [4] (setting [9]), 8 nM. Further, the “ALK % of inhibition” value in assay [1] (setting [6]) is reported as 20%.

On to `Cc1nc(S(=O)(=O)N2CCC(CN(C)Cc3ccc4cc3CCc3cncc(c3)Nc3ncc(Cl)c(n3)N4)CC2)cn1C` [Example B343, 1-[6-Chloro-2,4,8,18,22-pentaazatetracyclo[14.3.1.1(3,7).1(9,13)]docosa-1(20),3(22),4,6,9(21),10,12,16,18-nonaen-12-yl]-N-({1-[(1,2-dimethyl-1H-imidazol-4-yl)sulfonyl]piperidin-4-yl}methyl)-N-methylmethanamine tris(trifluoroacetate)], for which the IC50 on TYK2 (Table B1) was 180 nM; in assay [2] (Table B1), over 400 nM; in assay [3] (Table B1) it was 130 nM; in assay [4] (Table B1), 3.8 nM. In addition, the “ALK % of inhibition” value in assay [1] (percentage inhibition of the example compound at a concentration of 500 nM or 1 mM (not specified which)) is recorded as 42%.

`Cc1noc(C)c1C(=O)N1CCC(CC(=O)Nc2ccc3cc2CCc2cncc(c2)Nc2ncc(Cl)c(n2)N3)CC1` [Example A156, N-[6-Chloro-2,4,8,18,22-pentaazatetracyclo[14.3.1.1(3,7).1(9,13)]docosa-1(20),3(22),4,6,9(21),10,12,16,18-nonaen-12-yl]-2-{1-[(3,5-dimethylisoxazol-4-yl)carbonyl]piperidin-4-yl}acetamide bis(trifluoroacetate)]: the IC50 at TYK2 is 2500 nM; in assay [2] (setting [7]), over 10000 nM; in assay [3] (setting [8]), 917 nM; in assay [4] (setting [9]) it was 96 nM. The “ALK % of inhibition” value in assay [1] (setting [6]) is recorded as 17%.

For `O=C(Nc1nccs1)Nc1ccc2cc1CCc1cccc(c1)Nc1ncc(Cl)c(n1)N2` [Example B245, N-[6-Chloro-2,4,8,22-tetraazatetracyclo[14.3.1.1(3,7).1(9,13)]docosa-1(20),3(22),4,6,9(21),10,12,16,18-nonaen-12-yl]-N′-1,3-thiazol-2-ylurea trifluoroacetate], the IC50 at TYK2 (Table B1) was determined as 8.5 nM; in assay [2] (Table B1), 20 nM; in assay [3] (Table B1) it was 78 nM; in assay [4] (Table B1) it was 17 nM. For the same compound, in assay [1] (setting [5]), the “ALK % of inhibition” value is given as 41%.

For `O=C(Nc1nc[nH]n1)Nc1ccc2cc1CCc1cccc(c1)Nc1ncc(Cl)c(n1)N2` [Example B244, N-[6-Chloro-2,4,8,22-tetraazatetracyclo[14.3.1.1(3,7).1(9,13)]docosa-1(20),3(22),4,6,9(21),10,12,16,18-nonaen-12-yl]-N′-1H-1,2,4-triazol-3-ylurea trifluoroacetate], the IC50 on TYK2 (Table B1) stood at 1.6 nM; in assay [2] (Table B1), 2.6 nM; in assay [3] (Table B1), 19 nM; in assay [4] (Table B1) it was 9.2 nM. In addition, in assay [1] (setting [5]), the “ALK % of inhibition” value amounted to 63%.

For the compound `CC(C)(C)c1ccccc1NC(=O)Nc1ccc2cc1CCc1cccc(c1)Nc1ncc(Cl)c(n1)N2` [Example B110, N-(2-tert-Butylphenyl)-N′-[6-chloro-2,4,8,22-tetraazatetracyclo[14.3.1.1(3,7).1(9,13)]docosa-1(20),3(22),4,6,9(21),10,12,16,18-nonaen-12-yl]urea trifluoroacetate], the IC50 came out at 15 nM against TYK2 (Table B1), 92 nM in assay [2] (Table B1), 5.2 nM in assay [3] (Table B1) and 4.3 nM in assay [4] (Table B1). Moreover, the “ALK % of inhibition” value in assay [1] (setting [5]) is listed as 7.1%.

Regarding `Clc1cnc2nc1Nc1ccc(OC3CCCC3)c(c1)CCc1cccc(c1)N2` [Example A14, 6-Chloro-12-(cyclopentyloxy)-2,4,8,22-tetraazatetracyclo[14.3.1.1(3,7).1(9,13)]docosa-1(20),3(22),4,6,9(21),10,12,16,18-nonaene trifluoroacetate], the IC50 was 116 nM against TYK2, 144 nM in assay [2] (setting [7]), 42 nM in assay [3] (setting [8]) and 74 nM in assay [4] (setting [9]). Also, the “ALK % of inhibition” value in assay [1] (setting [6]) is reported as 0%.

For orientation: IC50 means the point on the concentration scale where inhibition reaches its midpoint.
